Results as given in patent US5688949A, “Pyrazolo[1,5-A]pyrimidine derivatives and anti-inflammatory agent containing the same” (Otsuka Pharmaceutical Factory, Inc., priority 1991, dated 1997).

Assays:
cyclooxygenase [1] = target: T1, cyclooxygenase (Ovis aries, UniProt P05979); experiment: Cyclooxygenase inhibitory activity test 1 (sheep seminal vesicle microsome, 14C-arachidonic acid); assay type: biochemical
T1 construct: sheep seminal vesicle microsome, which is a crude enzyme solution; from tissue; host or cells: sheep seminal vesicle microsomes (crude enzyme solution)
T1 sequence (P05979 25-600): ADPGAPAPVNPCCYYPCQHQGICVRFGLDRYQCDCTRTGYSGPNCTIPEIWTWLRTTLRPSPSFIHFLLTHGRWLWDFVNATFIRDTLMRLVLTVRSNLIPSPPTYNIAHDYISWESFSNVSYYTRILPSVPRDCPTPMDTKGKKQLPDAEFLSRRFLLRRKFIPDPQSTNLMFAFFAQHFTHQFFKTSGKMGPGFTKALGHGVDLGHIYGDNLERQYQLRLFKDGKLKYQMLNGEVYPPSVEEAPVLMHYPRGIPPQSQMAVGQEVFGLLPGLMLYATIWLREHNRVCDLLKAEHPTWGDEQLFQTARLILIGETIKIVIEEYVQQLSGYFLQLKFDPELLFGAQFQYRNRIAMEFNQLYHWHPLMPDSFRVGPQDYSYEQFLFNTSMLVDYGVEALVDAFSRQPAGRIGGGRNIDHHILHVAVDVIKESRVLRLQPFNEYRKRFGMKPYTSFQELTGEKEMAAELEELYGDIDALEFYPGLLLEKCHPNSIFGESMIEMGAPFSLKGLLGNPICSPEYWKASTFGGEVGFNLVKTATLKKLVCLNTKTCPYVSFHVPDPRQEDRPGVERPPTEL
Description: Cyclooxygenase inhibitory activity test 1:
The preparation of sheep seminal vesicle microsome, which is a crude enzyme solution, and the analysis of the cyclooxygenase activity were carried out according to the method of Miyamoto et al. as follows [cf. Proc. Natl. Acad. Sci., U.S.A., 71, 3645 (1974) and J. Biol. Chem., 251, 2629 (1976)].
(§1) That is, a test compound was added to a microsome solution, and the mixture was incubated at 24° C. for two minutes, and then, thereto was added a substrate, ^14 C-arachidonic acid. The mixture was further incubated for two minutes, and the reaction was quenched with a mixture of ether/methanol/0.2M citric acid (30:4:1), and extracted to collect a product produced by cyclooxygenase. The extract was spotted on a thin layer plate and the plate was developed. The fractions containing the arachidonic acid, prostaglandin E2 (PGE2) and the other parts were collected by scratching, respectively. Each part was measured with a scintillation counter, by which the cyclooxygenase activity therein was estimated.
The compounds prepared in Examples 2, 38, 44 and 46 were tested in the above experiment, and there were obtained the concentrations of the test compounds required to reduce the cyclooxygenase activity to 50% (cyclooxygenase inhibitory rate; IC50 value).

cyclooxygenase [2] = target: T1, cyclooxygenase; experiment: Cyclooxygenase inhibitory activity test 2 (fixed concentration, sheep seminal vesicle microsome); assay type: biochemical; details: same fixed concentration, 3×10^-7 M; PGE2 producing rate compared with control group
Description: The preparation of sheep seminal vesicle microsome, which is a crude enzyme solution, and the analysis of the cyclooxygenase activity were carried out according to the method of Miyamoto et al. as follows [cf.
as §1

Compound | IC50 value relative to that of indomethacin ("times as high as that of indomethacin") (cyclooxygenase [1]; reference compound indomethacin) | IC50 (cyclooxygenase [1]; sheep seminal vesicle microsome, 24° C., two minutes preincubation, two minutes with 14C-arachidonic acid, read-out: IC50 value (concentration required to reduce the cyclooxygenase activity to 50%)) | inhibition at 0.3 µM (cyclooxygenase [2])
Cc1cc(Nc2cc(C(C)(C)C)c(O)c(C(C)(C)C)c2)n2nccc2n1 [Example 2, 5-methyl-7-(3,5-di-t-butyl-4-hydroxyphenyl)aminopyrazolo[1,5-a]pyrimidine] | 27.8 times | 300 nM | 65%
CCc1cc(Nc2cc(C(C)(C)C)c(O)c(C(C)(C)C)c2)n2nccc2n1 [Example 44] |  |  | 55.9%
CCCCc1cc(Nc2cc(C(C)(C)C)c(O)c(C(C)(C)C)c2)n2nccc2n1 [Example 38] |  |  | 48.2%
CC(C)(C)c1cc(Nc2cc(C3CC3)nc3ccnn23)cc(C(C)(C)C)c1O [Example 46] |  |  | 50.5%
